Laboratory results reported in US5519029A, “2-aminoalkyl-5-aminoalkylamino substituted-isoquinoindazole-6(2H)-ones” (Boehringer Mannheim Italia, S.p.A., priority 1993, dated 1996).
≈ marks a conversion by molar mass, not a printed value. Entries after “also recorded” stand apart in the source; their conditions may differ. Read-outs that look alike come from different tables or passages of the source.

Legend:
[1] = dose limiting, phase I and phase II; cited from earlier work
[2] = rat; cited from earlier work
[3] = system: Lovo/DX; details: characterisation of subline (Grandi et al. 1986); cited from earlier work
[4] = system: human colon adenocarcinoma cell line (Lovo); assay: MTT cytotoxicity assay, Lovo cell line; type: cell-based; details: read-out: IC50 LOVO
Experimental: (§1) The evaluation of the biological activity for the compounds of this invention was performed in vitro and in vivo following the protocols developed by the U.S. National Cancer Institute.
(§2) The evaluation of the in vitro cytotoxic activity of the compounds of the invention was performed using a human colon adenocarcinoma cell line (Lovo) isolated from a metastatic nodule, and a subline expressing multidrug resistance. The subline is resistant to a number of antitumor agents, among which are doxorubicin, VP-16, and vincristine.

[5] = system: Lovo/DX; assay: MTT cytotoxicity assay, multidrug-resistant subline Lovo/DX; type: cell-based, human; details: for IC50: Homo sapiens, read-out: IC50 LOVO/DX; for RI (resistance index): ratio of the IC50 for the resistant line cell to the IC50 for the sensitive cell line; for cross resistance / resistance in Lovo/DX (in words): Lovo/DX subline
Experimental: as §1, §2

[6] = system: advanced breast cancer, acute leukemia and lymphoma; details: clinical trials; cited from earlier work
[7] = cited from earlier work; for cardiotoxicity in animals (in words): animal studies
[8] = mostly in patients previously treated with doxorubicin; cited from earlier work
[9] = i.p., non-tumor bearing rats, equieffective antitumor dosages; cited from earlier work
[10] = in vivo; cited from earlier work
[11] = system: cell histotypes developing resistance against doxorubicin mediated by overexpression of glycoprotein P; details: doxorubicin-resistant cells; cited from earlier work
[12] = Lovo (sensitive) cells, MTT assay
[13] = Lovo/DX (resistant) cells, MTT assay

SMILES: O=C1c2c(O)cccc2-c2nn(CCNCCO)c3ccc(NCCNCCO)c1c23 [CI-941]
- neutropenia, W.H.O. grade [1]: 4 W.H.O. grade
- nephrotoxicity (in words) [2]: marked nephrotoxicity

SMILES: COc1cc([C@@H]2c3cc4c(cc3[C@@H](O[C@@H]3O[C@@H]5CO[C@@H](C)O[C@H]5[C@H](O)[C@H]3O)[C@H]3COC(=O)[C@H]23)OCO4)cc(OC)c1O [VP-16]
- resistance / accumulation in Lovo/DX subline (in words) [3]: resistant

SMILES: CN(C)CCNc1ccc2c3c(nn2CCN(C)C)-c2cnccc2C(=O)c13
- IC50 [4, 12]: 0.5 µg/mL (≈ 1.32 µM)
- IC50 [5, 13]: 0.9 µg/mL (≈ 2.38 µM)
- RI (resistance index) [5]: 1.8

SMILES: O=C1c2c(O)ccc(O)c2C(=O)c2c(NCCNCCO)ccc(NCCNCCO)c21 [MITOXANTRONE, 5,8-dihydroxy-1,4-bis{[2-(2-hydroxyethylamino)ethyl]amino}anthracene-9,10-dione]
- IC50 ([4]; LoVo): 0.04 µg/mL (≈ 0.09 µM)
- IC50 ([5]; LoVo/DX): 0.9 µg/mL (≈ 2.02 µM)
- cross resistance / resistance in Lovo/DX (in words) [5]: acquired resistance
- clinical antitumor activity (in words) [6]: particularly promising activity in the treatment of advanced breast cancer, acute leukemia and lymphoma
- cardiotoxicity in animals (in words) [7]: diminished cardiotoxicity in comparison to doxorubicin
- clinical cardiotoxicity (in words) [8]: some clinical cardiotoxicity has been observed
- delayed toxicity (in words) [9]: delayed toxicity is observed only with mitoxantrone
- myelodepressive toxicity (in words) [10]: remarkable myelodepressive toxicity

SMILES: CN(C)CCn1nc2c3c(c(NCCN)ccc31)C(=O)c1ccncc1-2
- IC50 [4, 12]: 0.5 µg/mL (≈ 1.43 µM)
- IC50 [5, 13]: 22.4 µg/mL (≈ 63.9 µM)
- RI (resistance index) [5]: 44.8

SMILES: CC[C@]1(O)C[C@H]2CN(CCc3c([nH]c4ccccc34)[C@@](C(=O)OC)(c3cc4c(cc3OC)N(C=O)[C@H]3[C@@](O)(C(=O)OC)[C@H](OC(C)=O)[C@]5(CC)C=CCN6CC[C@]43[C@@H]65)C2)C1 [vincristine]
- resistance / accumulation in Lovo/DX subline (in words) [3]: resistant

SMILES: CN(C)CCNc1ccc2c3c(nn2CCN)-c2cnccc2C(=O)c13
- IC50 [4, 12]: 0.3 µg/mL (≈ 0.856 µM)
- IC50 [5, 13]: 5 µg/mL (≈ 14.3 µM)
- RI (resistance index) [5]: 16.7

SMILES: COc1cccc2c1C(=O)c1c(O)c3c(c(O)c1C2=O)C[C@@](O)(C(=O)CO)C[C@@H]3O[C@H]1C[C@H](N)[C@H](O)[C@H](C)O1 [DOXORUBICIN]
- IC50 ([4]; LoVo): 0.9 µg/mL (≈ 1.66 µM)
- IC50 [5, 13]: 66.6 µg/mL (≈ 123 µM)
- RI (resistance index) [5]: 74
- resistance / accumulation in Lovo/DX subline (in words) [3]: resistant; also recorded: reduced accumulation

SMILES: O=C1c2ccccc2C(=O)c2c(NCCNCCO)ccc(NCCNCCO)c21 [ametantrone, 1,4-bis{[2-(2-hydroxyethylamino)ethyl]amino}anthracene-9,10-dione]
- cross resistance / resistance in Lovo/DX (in words) [5]: acquired resistance
- cardiotoxicity in animals (in words) [7]: less cardiotoxic than mitoxantrone
- potency relative to mitoxantrone (fold less potent) ([7]; in animals): about 10 fold
- myelodepressive toxicity (in words) [10]: remarkable myelodepressive toxicity
- cross-resistance (in words) [11]: cross-resistance
